Source: PubChem BioAssay (NCI)
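Dose response: 5 concentrations. Exposure: 48 h. Format: 96-well plates. Endpoint: linear interpolation; highest concentration if not reached. GI50 marks 50% less growth. TGI is the concentration that stops growth completely.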

Legend:
Assay in all cases: inhibition of tumour cell growth, NCI panel, 48 h
[1] = test system: 786-0 renal
[2] = test system: ACHN renal
[3] = test system: BT-549 breast
[4] = test system: HOP-62 NSCLC
[5] = test system: HOP-92 NSCLC
[6] = test system: MCF7 breast
[7] = test system: MDA-MB-231 breast
[8] = test system: PC-3 prostate
[9] = test system: SF-268 CNS
[10] = test system: SW-620 colon

Row | Structure (SMILES) | GI50 [1] [µM] | TGI [1] [µM] | GI50 [2] [µM] | TGI [2] [µM] | GI50 [3] [µM] | TGI [3] [µM] | GI50 [4] [µM] | TGI [4] [µM] | GI50 [5] [µM] | TGI [5] [µM] | GI50 [6] [µM] | TGI [6] [µM] | GI50 [7] [µM] | TGI [7] [µM] | GI50 [8] [µM] | TGI [8] [µM] | GI50 [9] [µM] | TGI [9] [µM] | GI50 [10] [µM] | TGI [10] [µM]
1 | C[C@@]12CCC[C@@](C)(C(=O)O)C1CC[C@]13C=C(CO)[C@](O)(CCC12)C3 (stereo not given in full) | > 100 | > 100 | > 100 | > 100 | > 100 | > 100 | > 100 | > 100 | > 100 | > 100 | > 100 | > 100 | > 100 | > 100 | > 100 | > 100 | > 100 | > 100 | > 100 | > 100
2 | Clc1ccc(-c2nc(-c3c[nH]c4ncccc34)cs2)cc1 | > 100 | > 100 | > 100 | > 100 | > 100 | > 100 | > 100 | > 100 | 0.0277 | > 100 | > 100 | > 100 | > 100 | > 100 | > 100 | > 100 | > 100 | > 100 | 36.3 | > 100
3 | O=C1OCC2=C1C(c1cccc([N+](=O)[O-])c1)c1cc3c(cc1N2CCO)CCC3 (stereo not given) | 0.0822 | 16.8 | 0.398 | > 50 | 0.177 | 5.32 | 0.199 | > 50 | 2.66 | > 50 | 0.0596 | > 50 | 0.271 | > 19.3 | 0.145 | > 50 | 0.295 | 22.9 | 0.179 | > 50
4 | COc1c(Nc2ncc(Cl)c(N[C@@H]3[C@H]4C=CC(C4)[C@@H]3C(N)=O)n2)ccc2c1CC[C@@H](N1CCOCC1)CC2 | 1.97 | 12.2 | 2.66 | 24.3 | 3.66 | 14.8 | 2.08 | 15 | 1.05 | 6.77 | 2.01 | 17.1 | 2.24 | 9.36 | 3.94 | 23.7 | 4.71 | 20.8 | 2.51 | 10.2
5 | Nc1nn(C(=O)Nc2ccc(Cc3ccccc3)cc2)c2ccc(Cl)cc12 | 4.59 | 28.7 | 0.0646 | 26.4 | 12.4 | > 66.3 | 1.33 | 14.8 | 13.4 | 42 | 0.422 | 18 | 9.48 | 50.2 | 2.87 | > 66.5 | 13.2 | 52.3 | 0.724 | 54.3
6 | O=C(Nc1cccnc1)c1cccs1 | 6.77 | > 100 | 8.98 | > 100 | 6.78 | > 100 | 42.2 | > 100 | > 100 | > 100 | 1.67 | > 100 | 81.3 | > 100 | > 100 | > 100 | 4.54 | > 100 | 2.09 | > 100
